# Test results: patent publication US20260007131A1, “HERBICIDAL COMPOSITION CONTAINING DIFLUOROBUTENOIC ACID AMIDE COMPOUND” (ISHIHARA SANGYO KAISHA, LTD., priority 2022, published 2026)
# How the values were obtained:
# Type in all cases: in vivo
# [1] = test system: redroot pigweed (Amaranthus retroflexus); experiment: Herbicidal effect on redroot pigweed (foliar treatment); conditions: Comparative Test 1, redroot pigweed, read-out: Growth inhibition rate
# Experimental: (§1) Upland soil was put into a 1/300,000 hectare (ha) pot, seeds of barnyardgrass (Echinochloa crus-galli) were sown, and about 1.5 cm of cover soil was put. The barnyardgrass was grown for 10 days in a greenhouse until it reached a predetermined leaf stage. […] The spray solution was sprayed over the grown barnyardgrass with a small sprayer for foliar treatment.
# (§2) Upland soil was put into a 1/300,000 hectare (ha) pot, seeds of barnyardgrass (Echinochloa crus-galli), crabgrass (Digitaria sanguinalis), green foxtail (Setaria viridis), wild oat (Avena fatua), Italian ryegrass (Lolium multiflorum), foxtail shortawn (Alopecurus aequalis), annual bluegrass (Poa annua), redroot pigweed (Amaranthus retroflexus), common chickweed (Stellaria media) common lambsquarters (Chenopodium album) and black nightshade (Solanum nigrum) were sown, and about 1.5 cm of cover soil was put. The plants were grown for 10 days in a greenhouse until they reached a predetermined leaf stage.
# [2] = test system: common chickweed (Stellaria media); experiment: Herbicidal effect on common chickweed (foliar treatment); conditions: Comparative Test 1, common chickweed, read-out: Growth inhibition rate
# Experimental: as §1, §2
# [3] = test system: annual bluegrass (Poa annua); experiment: Herbicidal effect on annual bluegrass (foliar treatment); conditions: Comparative Test 1, annual bluegrass, read-out: Growth inhibition rate
# Experimental: as §1, §2
# [4] = test system: Italian ryegrass (Lolium multiflorum); experiment: Herbicidal effect on Italian ryegrass (soil treatment)
# Text: (§3) Upland soil was put into a 1/300,000 hectare (ha) pot, seeds of barnyardgrass (Echinochloa crus-galli) were sown, and about 1.5 cm of cover soil was put. […] On the next day after sowing, the spray solution was sprayed with a small sprayer for soil treatment.
# (§4) Upland soil was put into a 1/300,000 hectare (ha) pot, seeds of barnyardgrass (Echinochloa crus-galli), crabgrass (Digitaria sanguinalis), green foxtail (Setaria viridis), Italian ryegrass (Lolium multiflorum), redroot pigweed (Amaranthus retroflexus) and common chickweed (Stellaria media) were sown, and about 1.5 cm of cover soil was put.
# [5] = test system: green foxtail (Setaria viridis); experiment: Herbicidal effect on green foxtail (foliar treatment); conditions: Comparative Test 1, green foxtail, read-out: Growth inhibition rate
# Experimental: as §1, §2
# [6] = test system: green foxtail (Setaria viridis); experiment: Herbicidal effect on green foxtail (soil treatment); conditions: Comparative Test 2, green foxtail, read-out: Growth inhibition rate
# Text: as §3, §4
# [7] = test system: Italian ryegrass (Lolium multiflorum); experiment: Herbicidal effect on Italian ryegrass (foliar treatment); conditions: Comparative Test 1, Italian ryegrass, read-out: Growth inhibition rate
# Experimental: as §1, §2
# wild oat (Avena fatua) = experiment: Herbicidal effect on wild oat (foliar treatment); conditions: Comparative Test 1, wild oat, read-out: Growth inhibition rate
# Experimental: as §1, §2
# [8] = test system: barnyardgrass (Echinochloa crus-galli); experiment: Herbicidal effect on barnyardgrass (soil treatment); conditions: Comparative Test 2, barnyardgrass, read-out: Growth inhibition rate
# Text: as §3, §4
# [9] = test system: crabgrass (Digitaria sanguinalis); experiment: Herbicidal effect on crabgrass (foliar treatment); conditions: Comparative Test 1, crabgrass, read-out: Growth inhibition rate
# Experimental: as §1, §2
# [10] = test system: barnyardgrass (Echinochloa crus-galli); experiment: Herbicidal effect on barnyardgrass (foliar treatment); conditions: Comparative Test 1, barnyardgrass, read-out: Growth inhibition rate
# Experimental: as §1, §2
# [11] = test system: common lambsquarters (Chenopodium album); experiment: Herbicidal effect on common lambsquarters (foliar treatment); conditions: Comparative Test 1, common lambsquarters, read-out: Growth inhibition rate
# Experimental: as §1, §2
# [12] = test system: crabgrass (Digitaria sanguinalis); experiment: Herbicidal effect on crabgrass (soil treatment)
# Text: as §3, §4
# [13] = test system: foxtail shortawn (Alopecurus aequalis); experiment: Herbicidal effect on foxtail shortawn (foliar treatment); conditions: Comparative Test 1, foxtail shortawn, read-out: Growth inhibition rate
# Experimental: as §1, §2
# [14] = test system: black nightshade (Solanum nigrum); experiment: Herbicidal effect on black nightshade (foliar treatment); conditions: Comparative Test 1, black nightshade, read-out: Growth inhibition rate
# Experimental: as §1, §2
# [15] = test system: redroot pigweed (Amaranthus retroflexus); experiment: Herbicidal effect on redroot pigweed (soil treatment)
# Text: as §3, §4
# [16] = test system: common chickweed (Stellaria media); experiment: Comparative Test 2: herbicidal effect on common chickweed (soil treatment); conditions: Comparative Test 2, common chickweed, read-out: Growth inhibition rate
# Text: Upland soil was put into a 1/300,000 hectare (ha) pot, seeds of barnyardgrass (Echinochloa crus-galli), crabgrass (Digitaria sanguinalis), green foxtail (Setaria viridis), Italian ryegrass (Lolium multiflorum), redroot pigweed (Amaranthus retroflexus) and common chickweed (Stellaria media) were sown, and about 1.5 cm of cover soil was put. The Invention Compound (Aa-1-1, Aa-9-2) or the compound 4b described in Patent Document 1 was weighed to achieve a predetermined active ingredient dose, dissolved in acetone (containing 0.5 vol % of surfactant (TritonX-100: manufactured by Kishida Chemical Co., Ltd.)) or dimethyl sulfoxide and diluted with water (containing 0.1 vol % of agricultural spreader (Surfactant WK: manufactured by MARUWA Biochemical Co., Ltd.) in an amount corresponding to 1,000 liter per hectare, to prepare each spray solution. On the next day after sowing, each spray solution was sprayed with a small sprayer for soil treatment. On the 14th day after the soil treatment, the state of growth of each plant was visually observed, and the herbicidal effect was evaluated in accordance with the growth inhibition rate (%) of from 0 (equivalent to the non-treated area) to 100 (complete kill).
# [17] = Comparative Test 2, Italian ryegrass, read-out: Growth inhibition rate
# [18] = Comparative Test 2, crabgrass, read-out: Growth inhibition rate
# [19] = Comparative Test 2, redroot pigweed, read-out: Growth inhibition rate
Compound,inhibition at 500 g/ha [1],inhibition at 1000 g/ha [1],inhibition at 500 g/ha [2],inhibition at 1000 g/ha [2],inhibition at 500 g/ha [3],inhibition at 1000 g/ha [3],"inhibition at 500 g/ha [4, 17]","inhibition at 1000 g/ha [4, 17]",inhibition at 500 g/ha [5],inhibition at 1000 g/ha [5],inhibition at 500 g/ha [6],inhibition at 1000 g/ha [6],inhibition at 500 g/ha [7],inhibition at 1000 g/ha [7],inhibition at 500 g/ha (wild oat (Avena fatua)),inhibition at 1000 g/ha (wild oat (Avena fatua)),inhibition at 500 g/ha [8],inhibition at 1000 g/ha [8],inhibition at 500 g/ha [9],inhibition at 1000 g/ha [9],further results
COC(=O)[C@H]1C[C@H](NC(=O)C(F)(F)/C=C/c2cc(C)cc(F)c2)C1 [Aa-9-2],70 to 90%,70 to 90%,≥ 90%,≥ 90%,≥ 90%,≥ 90%,≥ 90%,≥ 90%,≥ 90%,≥ 90%,≥ 90%,≥ 90%,≥ 90%,≥ 90%,≥ 90%,≥ 90%,≥ 90%,≥ 90%,≥ 90%,≥ 90%,"inhibition at 500 g/ha ([4]; Italian ryegrass, 14th day, read-out: growth inhibition rate): ≥ 70%; inhibition at 500 g/ha [10]: ≥ 90%; inhibition at 1000 g/ha [10]: ≥ 90%; inhibition at 500 g/ha [11]: 70 to 90%; inhibition at 1000 g/ha [11]: 70 to 90%; inhibition at 500 g/ha [12, 18]: ≥ 90%; inhibition at 1000 g/ha [12, 18]: ≥ 90%; inhibition at 500 g/ha ([12]; crabgrass, 14th day, read-out: growth inhibition rate): ≥ 70%; inhibition at 500 g/ha [13]: ≥ 90%; inhibition at 1000 g/ha [13]: ≥ 90%; inhibition at 500 g/ha [14]: 50 to 70%; inhibition at 1000 g/ha [14]: 70 to 90%; inhibition at 500 g/ha [15, 19]: ≥ 90%; inhibition at 1000 g/ha [15, 19]: ≥ 90%; inhibition at 500 g/ha ([15]; redroot pigweed, 14th day, read-out: growth inhibition rate): ≥ 70%; inhibition at 500 g/ha [16]: ≥ 90%; inhibition at 1000 g/ha [16]: ≥ 90%"
"CN(C(=O)/C=C/c1ccccc1)C1CCC1 [Compound 4b, reference compound]",< 30%,30 to 50%,< 30%,30 to 50%,< 30%,< 30%,< 30%,< 30%,< 30%,< 30%,< 30%,< 30%,< 30%,< 30%,< 30%,< 30%,< 30%,< 30%,< 30%,< 30%,"inhibition at 500 g/ha [10]: < 30%; inhibition at 1000 g/ha [10]: < 30%; inhibition at 500 g/ha [11]: < 30%; inhibition at 1000 g/ha [11]: < 30%; inhibition at 500 g/ha [12, 18]: < 30%; inhibition at 1000 g/ha [12, 18]: < 30%; inhibition at 500 g/ha [13]: < 30%; inhibition at 1000 g/ha [13]: < 30%; inhibition at 500 g/ha [14]: < 30%; inhibition at 1000 g/ha [14]: ≥ 90%; inhibition at 500 g/ha [15, 19]: < 30%; inhibition at 1000 g/ha [15, 19]: < 30%; inhibition at 500 g/ha [16]: < 30%; inhibition at 1000 g/ha [16]: < 30%"
